According to article PMC8022858, “Discovery of bone morphogenetic protein 7-derived peptide sequences that attenuate the human osteoarthritic chondrocyte phenotype” (Molecular Therapy. Methods & Clinical Development, 2021):

How the values were obtained:
[1] = system: human OA infra-patellar fat pad (IPFP) explants; assay: PGE2 levels in culture supernatant of IPFP explants; assay type: cell-based; conditions: n = 5 donors, 24 h, relative to control (Figure 6E)
Experimental: Figure 6 Peptide p[63−82] activity on OA knee joint tissues Human OA knee joint tissues were cultured for 24 h in the presence of BMP7, peptide p[63−82], or the scrambled version of peptide p[63−82] and compared to control conditions. (A) Cartilage tissues (n = 7 individual donors) were exposed to shown conditions and analyzed for COL2A1, COL10A1, and COX-2 mRNA expression by quantitative real-time PCR (normalized for 28S rRNA expression and relative to control conditions). (B) GAG release in medium from cartilage tissues (n = 5 individual donors) was determined, and data were calculated relative to the control condition. (C) PGE2 levels in culture supernatant from synovium (n = 5 donors). (D) PGE2 levels in culture supernatant from cartilage tissues from (B) (n = 5 donors). (E) PGE2 levels in culture supernatant from IPFP (n = 5 donors). (F) PGE2 levels in culture supernatant from the meniscus. Synovium, IPFP, and meniscus tissues were from the same 5 donors as the cartilage tissues in (B) and (C). PGE2 levels in conditions were calculated relative to controls for each donor. In graphs, error bars represent mean ± SEM; data are presented relative to the control condition for each time point. Statistical differences (unpaired two-tailed Student’s t test) were calculated to control condition: ∗p < 0.05, ∗∗p < 0.01, and ∗∗∗p < 0.001. […]

OA-HACs = assay: Duration of chondrocyte phenotype modulation, single versus multiple peptide addition, 10-day follow-up; assay type: cell-based, human; conditions: 100 nM; for COL10A1 gene expression, continuous exposure / inhibition of MMP13 and COX-2 expression, continuous exposure / COL2A1 mRNA expression, continuous exposure / inhibition of COL10A1, MMP13, and COX-2 gene expression after single dose, up to and including day / expression of COL10A1, MMP13, and COX-2 at day 10, single dose / timing of action on COL2A1 after single dose: OA-HAC pool (n = 3 donors); for COL10A1 gene expression, continuous exposure / inhibition of MMP13 and COX-2 expression, continuous exposure: multiple addition; for COL10A1 gene expression, continuous exposure: 10 days (Figure 4B); for inhibition of MMP13 and COX-2 expression, continuous exposure: 10 days (Figures 4C, 4D); for COL2A1 mRNA expression, continuous exposure: peptide added every other day (multiple), 10 days (Figure 4A); for inhibition of COL10A1, MMP13, and COX-2 gene expression after single dose, up to and including day: single dose at start, sampled every 2 days; for timing of action on COL2A1 after single dose: compared with timing for COL10A1, MMP13, COX-2; for detectable changes in chondrocyte gene expression phenotype after a single exposure: OA-HAC pool
Experimental: The duration of chondrocyte phenotypic change induced by candidate peptides p[63−82] and p[113−132] was determined by exposing OA-HACs to a single dose of peptide or continuously keeping the peptides present during OA-HAC culture. In both cases, the phenotype of the OA-HACs was analyzed every other day during a 10-day follow-up. Non-OA-HACs were used as a reference for chondrocyte phenotype status.
Figure 4 Duration of chondrocyte phenotype modulation by BMP7-derived peptides A pool of OA-HACs (n = 3 donors) was cultured in the presence or absence of 100 nM peptides p[63−82] or p[113−132] and compared to a pool of human articular chondrocytes from a non-OA source. The medium was changed every 2 days. Peptides were added at the start of the experiment and subsequently at every medium change (multiple) or only at the start of the experiment and not during every subsequent medium change (single). At days 0, 2, 4, 6, 8, and 10 in culture, samples were harvested and analyzed for the expression of the indicated mRNAs by quantitative real-time PCR (normalized for 28S rRNA expression) (A) COL2A1 mRNA expression. (B) COL10A1 mRNA expression. (C) MMP13 mRNA expression. (D) COX-2 mRNA expression. In graphs, error bars represent mean ± SEM; data are presented relative to the “control OA” condition of each time point. Statistical differences were calculated to control conditions. Error bars represent mean ± SEM, and statistical significance for peptide conditions or control non-OA versus control OA condition as determined by unpaired two-tailed Student’s t test is represented as ∗p < 0.05, ∗∗p < 0.01, and ∗∗∗p < 0.001.
For the peptide-screening and alanine-scanning experiments, cDNA was prepared using the Cells-to-Ct kit (Invitrogen) according to the manufacturer’s protocol. For the other experiments, cells or homogenized tissues (Mikro-Dismembrator; Braun Biotech International) were lysed in TRIzol (Life Technologies) and RNA isolation and cDNA synthesis were performed as described earlier.[27]^,[57] Quantitative real-time PCR was performed using Takyon qPCR Master Mix plus blue for SYBR Green (Eurogentec). A CFX96 Real-Time PCR Detection System (Bio-Rad) was used for amplification: initial denaturation 95°C for 10 min, followed by 40 cycles of amplification (denaturing 15 s at 95°C and annealing 1 min at 60°C). Data were analyzed using the standard curve method, mRNA expression was normalized to a reference gene (28S rRNA), and gene expression was calculated as fold change as compared to control conditions.

Which “PGE2 levels from IPFP explants” value [1] does the source give for “BMP7: full-length recombinant bone morphogenetic protein 7 (R&D Systems), used at 1 nM” here?
Its value is “reduced”.

Which results are given for H-AAYYSEGESAFPLNSYMNAT-OH [p[63−82]]?
COL10A1 gene expression, continuous exposure (OA-HACs): steadily decreased over time; inhibition of MMP13 and COX-2 expression, continuous exposure (OA-HACs): continuously observed during the treatment period; COL2A1 mRNA expression, continuous exposure (OA-HACs): overtime increasing; inhibition of COL10A1, MMP13, and COX-2 gene expression after single dose, up to and including day (OA-HACs): up to 8 day; expression of COL10A1, MMP13, and COX-2 at day 10, single dose (OA-HACs): indistinguishable from non-treated OA HACs; timing of action on COL2A1 after single dose (OA-HACs): not detectable anymore from day 8 onward; detectable changes in chondrocyte gene expression phenotype after a single exposure (OA-HACs): up to 8 days; PGE2 levels from IPFP explants [1]: reduced

Which results are given for H-SVLYFDDSSNVILKKYRNMV-OH [p[113−132]]?
COL10A1 gene expression, continuous exposure (OA-HACs): steadily decreased over time; inhibition of MMP13 and COX-2 expression, continuous exposure (OA-HACs): continuously observed during the treatment period; COL2A1 mRNA expression, continuous exposure (OA-HACs): overtime increasing; inhibition of COL10A1, MMP13, and COX-2 gene expression after single dose, up to and including day (OA-HACs): up to 8 day; expression of COL10A1, MMP13, and COX-2 at day 10, single dose (OA-HACs): indistinguishable from non-treated OA HACs; timing of action on COL2A1 after single dose (OA-HACs): similar; detectable changes in chondrocyte gene expression phenotype after a single exposure (OA-HACs): up to 8 days
